Measurements taken from patent publication US8268821B2, “Methods and compositions” (priority 2003, dated 2012).
Marks after values point to notes of the source that are not given here.

System: cancer-related neuropathic pain
Assay: Open label dose escalation study of flupirtine, case studies JE and RM
Settings: flupirtine 100 mg qid; for neuropathic discriminant function score: >0 = neuropathic, day 1 baseline 0.262; for electric pain score / freezing pain score / numbness score / score for increased pain due to touch / score for increased pain due to weather changes / squeezing pain score / LEAST PAIN LAST 24 HRS: day 1 baseline 0; for PERCENTAGE PAIN RELIEF LAST 24 HOURS / WORST PAIN SCORE LAST 24 HOURS: day 1 baseline 10; for score for overly sensitive to touch / tingling pain score: day 1 baseline 20; for burning pain score / overwhelming pain score: day 1 baseline 90; for for shooting pain score / unpleasant pain score: day 1 baseline 100; for SCORE RELATIONSHIPS / SCORE MOOD / SCORE ENJOYMENT / SCORE SLEEP / SCORE WALKING / SCORE GENERAL ACTIVITY / SCORE TOTAL ACTIVITY: pain interference 1-10; for SCORE RELATIONSHIPS / SCORE NAUSEA / WHO PERFORMANCE STATUS: day 1 baseline 3; for SCORE MOOD / SCORE POOR APPETITE / SCORE UN[…] GAIT / PAIN SCORE RIGHT NOW: day 1 baseline 4; for SCORE ENJOYMENT / SCORE SLEEP: day 1 baseline 6; for SCORE WALKING: day 1 baseline 7; for SCORE GENERAL ACTIVITY / SCORE TOTAL ACTIVITY / AVERAGE PAIN LAST 24 HOURS: day 1 baseline 8; for SCORE CONSTIPATION / SCORE INDIGESTION / SCORE POOR CONCENTRATION / SCORE DROWSINESS / SCORE NAUSEA / SCORE POOR APPETITE / SCORE UN[…] GAIT: scale 1-4; for SCORE CONSTIPATION / SCORE INDIGESTION / SCORE POOR CONCENTRATION: day 1 baseline 1; for SCORE DROWSINESS: day 1 baseline 2; for LEAST PAIN LAST 24 HRS / PAIN SCORE RIGHT NOW / AVERAGE PAIN LAST 24 HOURS / WORST PAIN SCORE LAST 24 HOURS: scale to 10; for WHO PERFORMANCE STATUS: 0=fully active, 4=completely disabled

CCOC(=O)Nc1ccc(NCc2ccc(F)cc2)nc1N [flupirtine]
−0.228: neuropathic discriminant function score (RM day 2)
5*: SCORE GENERAL ACTIVITY (RM day 8) | SCORE TOTAL ACTIVITY (RM day 8)
50%: PERCENTAGE PAIN RELIEF LAST 24 HOURS (RM day 6)
9: WORST PAIN SCORE LAST 24 HOURS (RM day 5)
60: unpleasant pain score (RM day 4) | unpleasant pain score (RM day 6)
2: SCORE DROWSINESS (RM day 3) | SCORE MOOD (RM day 4) | SCORE SLEEP (RM day 4) | SCORE NAUSEA (RM day 4) | SCORE CONSTIPATION (RM day 5) | SCORE POOR CONCENTRATION (RM day 5) | SCORE POOR APPETITE (RM day 5) | LEAST PAIN LAST 24 HRS (RM day 5) | SCORE CONSTIPATION (RM day 6) | SCORE POOR CONCENTRATION (RM day 6) | SCORE NAUSEA (RM day 6) | SCORE POOR APPETITE (RM day 6) | LEAST PAIN LAST 24 HRS (RM day 6) | SCORE CONSTIPATION (RM day 7) | SCORE POOR CONCENTRATION (RM day 7) | SCORE NAUSEA (RM day 7) | SCORE POOR CONCENTRATION (RM day 8)
15%: PERCENTAGE PAIN RELIEF LAST 24 HOURS (RM day 2) | PERCENTAGE PAIN RELIEF LAST 24 HOURS (RM day 3)
1*: SCORE SLEEP (RM day 8) | SCORE DROWSINESS (RM day 8)
95: unpleasant pain score (RM day 2)
6: SCORE SLEEP (RM day 2) | SCORE WALKING (RM day 2) | SCORE GENERAL ACTIVITY (RM day 2) | SCORE TOTAL ACTIVITY (RM day 2) | PAIN SCORE RIGHT NOW (RM day 2) | SCORE WALKING (RM day 3) | SCORE ENJOYMENT (RM day 5) | SCORE SLEEP (RM day 5) | SCORE GENERAL ACTIVITY (RM day 5) | SCORE TOTAL ACTIVITY (RM day 5) | SCORE ENJOYMENT (RM day 6) | SCORE WALKING (RM day 6) | SCORE GENERAL ACTIVITY (RM day 6) | SCORE TOTAL ACTIVITY (RM day 6) | PAIN SCORE RIGHT NOW (RM day 6) | SCORE MOOD (RM day 7) | SCORE ENJOYMENT (RM day 7) | SCORE SLEEP (RM day 7) | SCORE WALKING (RM day 7)
6*: SCORE WALKING (RM day 8)
70: burning pain score (RM day 2) | overwhelming pain score (RM day 2)
1: SCORE CONSTIPATION (RM day 2) | SCORE INDIGESTION (RM day 2) | SCORE NAUSEA (RM day 2) | SCORE SLEEP (RM day 3) | SCORE CONSTIPATION (RM day 3) | SCORE INDIGESTION (RM day 3) | SCORE POOR CONCENTRATION (RM day 3) | SCORE NAUSEA (RM day 3) | SCORE POOR APPETITE (RM day 3) | SCORE INDIGESTION (RM day 4) | SCORE POOR CONCENTRATION (RM day 4) | SCORE DROWSINESS (RM day 4) | SCORE POOR APPETITE (RM day 4) | SCORE INDIGESTION (RM day 5) | SCORE DROWSINESS (RM day 5) | SCORE NAUSEA (RM day 5) | SCORE INDIGESTION (RM day 6) | SCORE DROWSINESS (RM day 6) | SCORE INDIGESTION (RM day 7) | SCORE DROWSINESS (RM day 7) | SCORE INDIGESTION (RM day 8) | LEAST PAIN LAST 24 HRS (RM day 8)
3: SCORE RELATIONSHIPS (RM day 2) | SCORE POOR CONCENTRATION (RM day 2) | SCORE DROWSINESS (RM day 2) | SCORE POOR APPETITE (RM day 2) | WHO PERFORMANCE STATUS (RM day 3) | SCORE RELATIONSHIPS (RM day 3) | WHO PERFORMANCE STATUS (RM day 4) | SCORE RELATIONSHIPS (RM day 4) | SCORE ENJOYMENT (RM day 4) | SCORE CONSTIPATION (RM day 4) | WHO PERFORMANCE STATUS (RM day 5) | SCORE RELATIONSHIPS (RM day 5) | SCORE MOOD (RM day 5) | WHO PERFORMANCE STATUS (RM day 6) | SCORE RELATIONSHIPS (RM day 6) | WHO PERFORMANCE STATUS (RM day 7) | SCORE RELATIONSHIPS (RM day 7) | SCORE POOR APPETITE (RM day 7) | AVERAGE PAIN LAST 24 HOURS (RM day 7) | WHO PERFORMANCE STATUS (RM day 8) | SCORE RELATIONSHIPS (RM day 8) | SCORE CONSTIPATION (RM day 8) | SCORE NAUSEA (RM day 8)
−1.168: neuropathic discriminant function score (RM day 6) | neuropathic discriminant function score (RM day 7)
5: AVERAGE PAIN LAST 24 HOURS (RM day 2) | SCORE GENERAL ACTIVITY (RM day 3) | SCORE TOTAL ACTIVITY (RM day 3) | SCORE WALKING (RM day 4) | SCORE GENERAL ACTIVITY (RM day 4) | SCORE TOTAL ACTIVITY (RM day 4) | SCORE WALKING (RM day 5) | PAIN SCORE RIGHT NOW (RM day 5) | SCORE GENERAL ACTIVITY (RM day 7) | SCORE TOTAL ACTIVITY (RM day 7) | PAIN SCORE RIGHT NOW (RM day 7) | WORST PAIN SCORE LAST 24 HOURS (RM day 7)
4*: SCORE MOOD (RM day 8) | SCORE ENJOYMENT (RM day 8)
8: WORST PAIN SCORE LAST 24 HOURS (RM day 2) | PAIN SCORE RIGHT NOW (RM day 3) | AVERAGE PAIN LAST 24 HOURS (RM day 3) | WORST PAIN SCORE LAST 24 HOURS (RM day 3) | AVERAGE PAIN LAST 24 HOURS (RM day 4) | WORST PAIN SCORE LAST 24 HOURS (RM day 4) | AVERAGE PAIN LAST 24 HOURS (RM day 5)
45*: unpleasant pain score (RM day 8)
−1.003: neuropathic discriminant function score (RM day 5)
−1.138: neuropathic discriminant function score (RM day 4)
65%: PERCENTAGE PAIN RELIEF LAST 24 HOURS (RM day 5)
20*: overwhelming pain score (RM day 8)
75* %: PERCENTAGE PAIN RELIEF LAST 24 HOURS (RM day 8)
20: for shooting pain score (RM day 3) | overwhelming pain score (RM day 7)
7: WORST PAIN SCORE LAST 24 HOURS (RM day 6) | PAIN SCORE RIGHT NOW (RM day 8)
40: overwhelming pain score (RM day 6)
80: for shooting pain score (RM day 2) | unpleasant pain score (RM day 5)
0: electric pain score (RM day 2) | freezing pain score (RM day 2) | numbness score (RM day 2) | score for increased pain due to touch (RM day 2) | score for increased pain due to weather changes (RM day 2) | squeezing pain score (RM day 2) | score for overly sensitive to touch (RM day 2) | tingling pain score (RM day 2) | LEAST PAIN LAST 24 HRS (RM day 2) | electric pain score (RM day 3) | freezing pain score (RM day 3) | numbness score (RM day 3) | score for increased pain due to touch (RM day 3) | score for increased pain due to weather changes (RM day 3) | squeezing pain score (RM day 3) | score for overly sensitive to touch (RM day 3) | tingling pain score (RM day 3) | burning pain score (RM day 3) | LEAST PAIN LAST 24 HRS (RM day 3) | electric pain score (RM day 4) | freezing pain score (RM day 4) | numbness score (RM day 4) | score for increased pain due to touch (RM day 4) | score for increased pain due to weather changes (RM day 4) | squeezing pain score (RM day 4) | score for overly sensitive to touch (RM day 4) | tingling pain score (RM day 4) | burning pain score (RM day 4) | for shooting pain score (RM day 4) | LEAST PAIN LAST 24 HRS (RM day 4) | electric pain score (RM day 5) | freezing pain score (RM day 5) | numbness score (RM day 5) | score for increased pain due to touch (RM day 5) | score for increased pain due to weather changes (RM day 5) | squeezing pain score (RM day 5) | score for overly sensitive to touch (RM day 5) | tingling pain score (RM day 5) | burning pain score (RM day 5) | for shooting pain score (RM day 5) | electric pain score (RM day 6) | freezing pain score (RM day 6) | numbness score (RM day 6) | score for increased pain due to touch (RM day 6) | score for increased pain due to weather changes (RM day 6) | squeezing pain score (RM day 6) | score for overly sensitive to touch (RM day 6) | tingling pain score (RM day 6) | burning pain score (RM day 6) | for shooting pain score (RM day 6) | electric pain score (RM day 7) | freezing pain score (RM day 7) | numbness score (RM day 7) | score for increased pain due to touch (RM day 7) | score for increased pain due to weather changes (RM day 7) | squeezing pain score (RM day 7) | score for overly sensitive to touch (RM day 7) | tingling pain score (RM day 7) | burning pain score (RM day 7) | for shooting pain score (RM day 7) | LEAST PAIN LAST 24 HRS (RM day 7) | electric pain score (RM day 8) | freezing pain score (RM day 8) | numbness score (RM day 8) | score for increased pain due to touch (RM day 8) | score for increased pain due to weather changes (RM day 8) | squeezing pain score (RM day 8)
4: SCORE MOOD (RM day 2) | SCORE ENJOYMENT (RM day 2) | SCORE UN[…] GAIT (RM day 2) | SCORE MOOD (RM day 3) | SCORE ENJOYMENT (RM day 3) | SCORE UN[…] GAIT (RM day 3) | SCORE UN[…] GAIT (RM day 4) | SCORE UN[…] GAIT (RM day 5) | SCORE MOOD (RM day 6) | SCORE SLEEP (RM day 6) | SCORE UN[…] GAIT (RM day 6) | AVERAGE PAIN LAST 24 HOURS (RM day 6) | SCORE UN[…] GAIT (RM day 7) | SCORE UN[…] GAIT (RM day 8)
25: overwhelming pain score (RM day 5)
50: overwhelming pain score (RM day 3) | unpleasant pain score (RM day 7)
−1.008: neuropathic discriminant function score (RM day 3)
0*: score for overly sensitive to touch (RM day 8) | tingling pain score (RM day 8) | burning pain score (RM day 8) | for shooting pain score (RM day 8)
2.5: PAIN SCORE RIGHT NOW (RM day 4)
30: overwhelming pain score (RM day 4)
75: unpleasant pain score (RM day 3)
75%: PERCENTAGE PAIN RELIEF LAST 24 HOURS (RM day 4) | PERCENTAGE PAIN RELIEF LAST 24 HOURS (RM day 7)
